In PMC8721871 (Biochemistry, 2021):

Assays:
Type in all cases: biochemical, Prescottella equi
Conditions in all cases: 50 mM HEPES pH 7.5, 25 °C (Methods: 2.5 mM HEPES)
[1] = system: ReNHase (Fe-type nitrile hydratase); assay: spectrophotometric, […],4-dihydroxybenzamide formation at […] nm
[2] = system: ReNHase (Fe-type nitrile hydratase); assay: spectrophotometric, 3-hydroxybenzamide formation at […] nm
[3] = system: ReNHase (Fe-type nitrile hydratase); assay: spectrophotometric, acetamide formation at […] nm
[4] = system: ReNHase (Fe-type nitrile hydratase); assay: spectrophotometric, acrylamide formation at […] nm
[5] = system: ReNHase (Fe-type nitrile hydratase); assay: spectrophotometric, benzamide formation at […] nm

N#Cc1ccc(O)c(O)c1 [3,4-dihydroxybenzonitrile]
Km [1]: 168 ± 21 µM

N#Cc1cccc(O)c1 [3-hydroxybenzonitrile]
Km [2]: 77 ± 17 µM

CC#N [acetonitrile]
Km (μM) [3]: 25 000 ± 2000 μM

C=CC#N [acrylonitrile]
Km (μM) [4]: 25 000 ± 11 000 μM

N#Cc1ccccc1 [benzonitrile]
Km [5]: 13.2 ± 1.4 µM
